Assays:
Mao-B [1] = test: Mao-B protein levels by Western blot in differentiated SH-SY5Y cells; type: cell-based; details: for Densitometric quantification Exp. 1 / Densitometric quantification Exp. 2 / Densitometric quantification Exp. 3: Mao-B Western blot band signal, Aza 625 nM, SAM 25 μM, Vit B6 5 μg/ml, Vit B12 7.5 μg/ml; for Densitometric quantification Exp. 1 / Densitometric quantification Exp. 2 / Densitometric quantification Exp. 3 / % MAO-B of untreated cells Exp. 1 / % MAO-B of untreated cells Exp. 2 / % MAO-B of untreated cells Exp. 3: differentiated SH-SY5Y cells treated Days 8 to 12; for % MAO-B of untreated cells Exp. 1 / % MAO-B of untreated cells Exp. 2 / % MAO-B of untreated cells Exp. 3: untreated set 100%; for % MAO-B of untreated cells Average: differentiated SH-SY5Y cells, average of the experiments
Experimental: The neuroblastoma cell line SH-SY5Y was seeded at 110,000 cell/6-well. Neuronal differentiation treatment was started on the next day (=Day 0) by addition of 10 μM retinoic acid every second day until Day 6. On Day 8 differentiation treatment was switched to 4 μM uridine (Ur), 5 μM 5-fluoro-2′-deoxyuridine FdUr), and 1 μM cytosine beta-D-arabinofuranoside (araC). During mitotic inhibitor addition (=Days 8 to 12) cells were left untreated or treated with 625 nM 5-aza-2′-deoxycytidine (Aza), 25 μM S-adenosylmethionine (SAM), 5 μg/ml vitamin B6 (Vit B6), 7.5 μg/ml vitamin B12 (Vit B12), or 5 μg/ml vitamin B6/7.5 μg/ml vitamin B12. On Day 12 cells were harvested. Cells were washed twice with chilled PBS, scraped off in PBS/protease inhibitors, and centrifuged at 15000×g at 4 C for 10 min. The pellet was reconstituted in 150 μl PBS/protease inhibitors and precipitated with 50 μl trichloroacetic acid/80 mMDTT for 1 hour at 4 C. After centrifugation at 15000×g at 4 C for 10 min, precipitated protein was washed four times with 0.6 ml acetone/20 mM DTT and stored at −80 C until analysis. The dried total protein pellet was reconstituted in 7M urea/2M thiourea/4% CHAPS buffer and the protein concentration was determined using the Coomassie Plus (Bradford) Protein Assay (Pierce, Thermo Scientific). Equal protein amounts were loaded onto an 11% SDS polyacrylamide gel and proteins were blotted onto nitrocellulose. Mao-B was detected using a polyclonal Goat anti-Mao-B antibody (sc18401, Santa Cruz) and DyLight 649 AffiniPureF(ab′)2 Fragment Donkey Anti-Goat IgGgamma (Jackson ImmunoResearch Laboratories, Inc.), and a Typhoon scanner (GE Healthcare Life Sciences). Results were analysed with the software ImageJ. The signals of the Mao-B bands of SAM treated and untreated differentiated SH-SY5Y cells were compared and the latter was set 100%.

Mao-B [2] = test: MAO-B protein expression by Western blot in HepG2 cells, normalised against GAPDH and 14-3-3 gamma; type: cell-based; details: 10 μM 5-aza-2-deoxycytidine for 1, 2, or 3 days; FIG. 3
Experimental: HepG2 cells were grown in DMEM low glucose/10% FBS and were treated with 10 μM 5-aza-2-deoxycytidine for 1, 2, or 3 days. Untreated HepG2 cells served as controls. Cells were scraped in precipitation buffer (PBS/25% trichloroacetic acid/20 mM DTT/protease inhibitors) at 4 C and proteins were precipitated for 1 hour at 4 C. Precipitated proteins were pelleted at 15000 rpm for 10 min (4 C) and washed 4 times with 700 μl acetone/20 mM DTT. Before analysis by SDS PAGE and Western blot, the precipitated samples were reconstituted in DIGE buffer/1% pH 4-7 ampholyte. Six parallel experiments were performed. […] Two normalisation compounds were used: GAPDH (glyceraldehyde 3-phosphate dehydrogenase) and 14-3-3 gamma (protein kinase C inhibitor protein 1). Each Mao-B band signal was divided by the respective GAPDH or 14-3-3 gamma band signal to achieve normalisation.
HepG2 cells were grown in DMEM low glucose/2% FBS and were treated with vitamin B6 (300 μg/ml) and vitamin B12 (74.4 μg/ml) for 1, 3, 4, 5 and 7 days. Untreated HepG2 cells served as controls. Cells were harvested and analysed by Western blot.

platelet MAO activity = details: LOAD patients, vitamin B12 therapy; cited from earlier work

Row | Compound | Densitometric quantification Exp. 1 (Mao-B [1]) | Densitometric quantification Exp. 2 (Mao-B [1]) | Densitometric quantification Exp. 3 (Mao-B [1]) | % MAO-B of untreated cells Exp. 1 (Mao-B [1]) [%] | % MAO-B of untreated cells Exp. 2 (Mao-B [1]) [%] | % MAO-B of untreated cells Exp. 3 (Mao-B [1]) [%] | % MAO-B of untreated cells Average (Mao-B [1]) [%] | MAO-B protein expression in HepG2 cells (Mao-B [2]) | platelet MAO activity (platelet MAO activity)
1 | vitamin B6 [Vit B6] | 4087.1 | 1008.1 | 1004.8 | 99 | 90 | 90 | 93 |  | 
2 | Nc1ncn([C@H]2C[C@H](O)[C@@H](CO)O2)c(=O)n1 [Aza, 5-aza-2′-deoxycytidine] |  | 1116.9 | 973.5 |  | 100 | 87 | 94 | increased levels of MAO-B are expressed | 
3 | vitamin B12 [Vit B12] | 3823.5 | 857.8 | 695.3 | 93 | 77 | 62 | 77 |  | significantly reduced
4 | C[S+](CC[C@H](N)C(=O)O)C[C@H]1O[C@@H](n2cnc3c(N)ncnc32)[C@H](O)[C@@H]1O (stereo partly shown) [SAM, S-adenosylmethionine] | 2482.6 | 990.4 | 1006.8 | 60 | 89 | 90 | 80 |  | 

— US20140336141A1, “MAO-B INHIBITORS DERIVED FROM THE ONE-CARBON CYCLE” (RANDOX LABORATORIES LTD., priority 2011, published 2014)
